Assays:
nNOS = assay: Western blot of nNOS knockdown in U87 tumors grown in cranial windows; assay type: in vivo; conditions: U87 tumors in cranial windows in Rag-1-/- mice
Method: The stably transfected cells were selected with 80 μg/ml of hygromycin B. The expression of nNOS protein in U87 tumor cells and tissues was determined by'Western blot analysis. Cultured U87MG cells washed with PBS and U87MG tumors homogenized by a tissue grinder were solubilized in 40 mM Tris-HCl, pH 6.8, 2% SDS, 10% glycerol, 1% β-mercaptoethanol, 0.01% bromophenol blue with one Complete Mini Protease Inhibitor Cocktail tablet (Roche Diagnostics) per 50 ml buffer.
Equal amounts of 60 micrograms of protein per sample were separated on 7.5% SDS polyacrylamide gels, transferred onto polyvinylidene fluoride membrane (Millipore), incubated with primary antibodies followed by secondary antibodies (the same antibodies used in immunohistochemistry studies. See Immunohistochemistry methods below), and detected using enhanced chemiluminescence (GE Healthcare) by exposure on autoradiography films (Kodak) (Xu, L., et al. 2005 Cancer Res. 65, 5711-5719; Canneliet, P., et al. 1998 Nature 394, 485-490; Xu, L., et al. 2002 Journal of Biological Chemistry 277, 11368-11374 (2002); and Xu, L., et al. 2004 Clinical Cancer Research 10, 701-707).
Recombination activating gene 1 (Rag-1^−/−) mice backcrossed to C57BL/6 background or severe combined immunodeficiency (SCID) mice, bred and maintained in an gnotobiotic animal facility, were used. To obtain source tumor tissue, U87 tumor cells in culture (1×10^6 cells) were injected subcutaneously into Rag-1^−/− or SCID mice matching the recipient mice. When the tumor reached about 8 mm in diameter, it was excised after euthanasia and a small piece (about 1 mm^3) of viable tumor tissue was implanted into a cranial window or subcutaneously into the calf area of the right hindlegs of the mice as previously described (Kashiwagi, S., et al. 2005 J. Clin. Invest. 115, 1816-1827; Kozin, S. V., et al. 2001 Cancer Research 61, 39-44). […]
U87 with nNOS shRNA (shRNA58, shRNA97, and shRNA150) were grown in cranial windows in Rag-1^−/− mice. Expression of nNOS in these tumors was determined by Western blot analysis. […]

U87 gliomas = assay: NO distribution in U87 gliomas by DAF-2T fluorescence (MPLSM); assay type: in vivo, mice; conditions: U87 tumor with shRNA58 vs parental U87, cranial window, Rag-1-/- mice
Method: FIGS. 3A-B show microfluorographs depicting NO distribution in U87 gliomas grown in the cranial window in Rag-1^−/−. NO production was visualized by means of DAF-2T fluorescence 0, 20, 40 and 60 min after DAF-2 (0.5 mg/body) injection. Left column, micro-angiography with tetramethylrhodamine-dextran (2000 kDa). Middle column, representative DAF-2T microfluorography captured 60 min after the loading of DAF-2 in tumors. Right column, pseudocolor representation of DAF-2T microfluorographs. […] Bars indicate 100 μm. (A) NO distribution in parental U87MG (top row) or nNOS shRNA58-transfected-U87 (bottom row) tumors. […]
Vascular parameters such as functional vessel density (the total length of perfused microvessels per unit area) and vessel diameter were analyzed by tracing each vessel segment using NIH image 1.63 as described elsewhere (Kashiwagi, S., et al. 2005 J. Clin. Invest. 115, 1816-1827). Tissue distribution of NO was visualized using MPLSM and the NO-sensitive fluorescence probe 4,5-diaminofluorescein (DAF-2) (0.5 mg i.v. Daiichi Pure Chemicals Co. Ltd) as described previously (Kashiwagi, S., et al. 2005 J. Clin. Invest. 115, 1816-1827). NO converts DAF-2 to 4,5-diaminofluorescein triazolium (DAF-2T) increasing fluorescence by a factor of 200. The DAF-2 associated fluorescence images were captured 60 min after i.v. injection. […]

Row | Substance | Knockdown efficiency of nNOS in vivo (nNOS) [%] | DAF-associated fluorescence (NO distribution) (U87 gliomas)
1 | shRNA150: short-hairpin RNA for nNOS, GGTCTATCCAATGTCCACA (sense), TGTGGACATTGGATAGACCTT (antisense), in pSilencer 3.1 H-1-hygro | 96 | 
2 | shRNA58: short-hairpin RNA for nNOS, CAAAGAGATCGACACCATC (sense), GATGGTGTCGATCTCTTTGTT (antisense), in pSilencer 3.1 H-1-hygro, stably transfected into U87MG | 98 | predominantly localized in vascular region
